Laboratory results published in PubChem BioAssay AID328 (DTP/NCI, 2004).
Values joined by “and” are separate entries in the source; they are usually repeats but may differ in a detail not shown here. Identical values can stand only once. Toxic doses and inconclusive results are not listed. Rule for the calls: active = survival T/C of 150% or more; inactive = T/C below 125% in these data.

Test system: BDF1 mice, P388 leukemia ip, median survival T/C
Assay: NCI In Vivo Anticancer Drug Screen. Data for tumor model P388 Leukemia (intraperitoneal) in B6D2F1 (BDF1) mice
Conditions: endpoint: median survival time, higher = longer survival
Outline: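 Each value expresses how treatment altered survival: treated-mouse outcome over vehicle-mouse outcome, both groups bearing the transplanted tumour.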

[1] = dose: 100.0 mg/kg/injection, schedule: Q04DX003 (ip), vehicle: saline
[2] = dose: 200.0 mg/kg/injection, schedule: Q04DX003 (ip), vehicle: saline
[3] = dose: 400.0 mg/kg/injection, schedule: Q04DX003 (ip), vehicle: saline
[4] = dose: 200.0 mg/kg/injection, schedule: Q04DX003 (ip), vehicle: saline with Tween-80
[5] = dose: 400.0 mg/kg/injection, schedule: Q04DX003 (ip), vehicle: saline with Tween-80
[6] = dose: 50.0 mg/kg/injection, schedule: Q04DX003 (ip), vehicle: saline with Tween-80
[7] = dose: 100.0 mg/kg/injection, schedule: Q04DX003 (ip), vehicle: saline with Tween-80
[8] = dose: 50.0 mg/kg/injection, schedule: Q01DX009 (ip), vehicle: saline with Tween-80
[9] = dose: 100.0 mg/kg/injection, schedule: Q01DX009 (ip), vehicle: saline with Tween-80
[10] = dose: 200.0 mg/kg/injection, schedule: Q01DX009 (ip), vehicle: saline with Tween-80
[11] = dose: 50.0 mg/kg/injection, schedule: Q01DX009 (ip), vehicle: Klucel (hydroxypropylcellulose) (HPC)
[12] = dose: 50.0 mg/kg/injection, schedule: Q04DX003 (ip), vehicle: saline
[13] = dose: 100.0 mg/kg/injection, schedule: Q01DX009 (ip), vehicle: saline

Measured: T/C

COC(=O)c1cc([N+](=O)[O-])ccc1Cl
inactive: [1] 98 % of control | [2] 102 % of control | [3] 100 % of control

O=C(Nc1ccc(Cl)cc1C(=O)c1ccccn1)c1ccccc1
inactive: [4] 120 % of control | [5] 110 % of control

O=S(CC(Cl)c1ccccc1)c1ccccc1 (stereo unspecified)
inactive: dose: 50.0 mg/kg/injection, schedule: Q01DX009 (ip), vehicle: other 106 % of control | dose: 100.0 mg/kg/injection, schedule: Q01DX009 (ip), vehicle: other 106 % of control | dose: 200.0 mg/kg/injection, schedule: Q01DX009 (ip), vehicle: other 100 % of control

c1cnc2c3c(ccc2c1)CN(C12CC4CC(CC(C4)C1)C2)CO3
inactive: dose: 25.0 mg/kg/injection, schedule: Q04DX003 (ip), vehicle: saline with Tween-80 108 % of control | [6] 109 % of control and 113 % of control | [7] 108 % of control

CCOC(=O)C(CCC(=O)OC)C1=NC(C)(C)CC(C)O1 (stereo unspecified)
inactive: dose: 50.0 mg/kg/injection, schedule: Q01DX001 (ip), vehicle: saline sonified 104 % of control | dose: 100.0 mg/kg/injection, schedule: Q01DX001 (ip), vehicle: saline sonified 100 % of control | dose: 200.0 mg/kg/injection, schedule: Q01DX001 (ip), vehicle: saline sonified 100 % of control

O=C(NC1=NN(c2ccccc2)C(=O)C1)Nc1ccccc1
inactive: dose: 87.5 mg/kg/injection, schedule: Q01DX009 (ip), vehicle: saline with Tween-80 110 % of control | dose: 175.0 mg/kg/injection, schedule: Q01DX009 (ip), vehicle: saline with Tween-80 103 % of control

CN(C)C(=O)c1cccc(NCc2ccc3nc(N)nc(N)c3c2)c1
inactive: dose: 3.12 mg/kg/injection, schedule: Q01DX009 (ip), vehicle: saline with Tween-80 108 % of control | dose: 6.25 mg/kg/injection, schedule: Q01DX009 (ip), vehicle: saline with Tween-80 99 % of control | dose: 12.5 mg/kg/injection, schedule: Q01DX009 (ip), vehicle: saline with Tween-80 106 % of control | dose: 25.0 mg/kg/injection, schedule: Q01DX009 (ip), vehicle: saline with Tween-80 99 % of control | [8] 95 % of control and 108 % of control | [6] 100 % of control | [9] 91 % of control | [7] 100 % of control | [10] 101 % of control | [4] 104 % of control | dose: 400.0 mg/kg/injection, schedule: Q01DX009 (ip), vehicle: saline with Tween-80 94 % of control | [5] 102 % of control

CCN(c1ccc(C=O)cc1)c1ccc([N+](=O)[O-])cc1[N+](=O)[O-]
inactive: [11] 99 % of control | dose: 100.0 mg/kg/injection, schedule: Q01DX009 (ip), vehicle: Klucel (hydroxypropylcellulose) (HPC) 97 % of control | dose: 200.0 mg/kg/injection, schedule: Q01DX009 (ip), vehicle: Klucel (hydroxypropylcellulose) (HPC) 97 % of control

CC(C)=CCOc1ccc(C(=O)/C=C/c2ccc(O)cc2)c(O)c1
inactive: dose: 1.25 mg/kg/injection, schedule: Q01DX009 (ip), vehicle: Klucel (hydroxypropylcellulose) (HPC) 93 % of control | dose: 2.5 mg/kg/injection, schedule: Q01DX009 (ip), vehicle: Klucel (hydroxypropylcellulose) (HPC) 115 % of control | dose: 5.0 mg/kg/injection, schedule: Q01DX009 (ip), vehicle: Klucel (hydroxypropylcellulose) (HPC) 109 % of control | dose: 10.0 mg/kg/injection, schedule: Q01DX009 (ip), vehicle: Klucel (hydroxypropylcellulose) (HPC) 107 % of control | dose: 20.0 mg/kg/injection, schedule: Q01DX009 (ip), vehicle: Klucel (hydroxypropylcellulose) (HPC) 97 % of control | dose: 40.0 mg/kg/injection, schedule: Q01DX009 (ip), vehicle: Klucel (hydroxypropylcellulose) (HPC) 98 % of control

Fc1ccc(NC(=S)SCc2ccc3c(c2)OCO3)cc1F
inactive: dose: 50.0 mg/kg/injection, schedule: Q01DX009 (ip), vehicle: saline + alcohol 116 % of control | [8] 109 % of control | dose: 100.0 mg/kg/injection, schedule: Q01DX009 (ip), vehicle: saline + alcohol 116 % of control | [9] 116 % of control
active: [10] 155 % of control

CN(C)CCCNC(CC#N)CCC#N (stereo unspecified)
inactive: [12] 100 % of control | [1] 109 % of control | [2] 100 % of control

O=CC(O)C(O)C(O)C(O)CO (stereo unspecified)
inactive: dose: 31.25 mg/kg/injection, schedule: Q01DX010 (ip), vehicle: saline 107 % of control | dose: 62.5 mg/kg/injection, schedule: Q01DX010 (ip), vehicle: saline 115 % of control | dose: 125.0 mg/kg/injection, schedule: Q01DX010 (ip), vehicle: saline 115 % of control | dose: 0.2 grams/kg/injection, schedule: Q03DX003 (ip), vehicle: water 96 % of control | dose: 250.0 mg/kg/injection, schedule: Q01DX010 (ip), vehicle: saline 107 % of control | dose: 0.4 grams/kg/injection, schedule: Q03DX003 (ip), vehicle: water 97 % of control | dose: 0.8 grams/kg/injection, schedule: Q03DX003 (ip), vehicle: water 102 % of control | dose: 1.5 grams/kg/injection, schedule: Q03DX003 (ip), vehicle: water 93 % of control | dose: 3.0 grams/kg/injection, schedule: Q03DX003 (ip), vehicle: water 102 % of control | dose: 6.0 grams/kg/injection, schedule: Q03DX003 (ip), vehicle: water 98 % of control | dose: 12.0 grams/kg/injection, schedule: Q03DX003 (ip), vehicle: water 95 % of control | dose: 16.0 grams/kg/injection, schedule: Q03DX003 (ip), vehicle: water 101 % of control

CCCCCCCCCCCCCCCCNc1cccc2ccccc12
inactive: dose: 100.0 mg/kg/injection, schedule: Q04DX003 (ip), vehicle: saline sonified 86 % of control | dose: 200.0 mg/kg/injection, schedule: Q04DX003 (ip), vehicle: saline sonified 104 % of control | dose: 400.0 mg/kg/injection, schedule: Q04DX003 (ip), vehicle: saline sonified 95 % of control

CCOC(=O)C1CC[N+](=c2cc(-c3ccc(Cl)cc3)ss2)CC1 (stereo unspecified)
inactive: dose: 50.0 mg/kg/injection, schedule: Q01DX009 (ip), vehicle: saline 101 % of control | [12] 106 % of control | [13] 99 % of control | [1] 116 % of control | [2] 116 % of control | [3] 116 % of control

C[Si](C)(C)C1CO1 (stereo unspecified)
inactive: [8] 106 % of control | [9] 106 % of control | [10] 102 % of control

NC(Cc1c[nH]c2ccc(N(CCCl)CCCl)cc12)C(=O)O (stereo unspecified)
active: dose: 0.5 mg/kg/injection, schedule: Q01DX010 (ip), vehicle: saline 218 % of control | dose: 1.0 mg/kg/injection, schedule: Q01DX010 (ip), vehicle: saline 290 % of control

O=C(O)C1C2CC1C(Cl)C2Cl (stereo unspecified)
inactive: [8] 106 % of control | [9] 106 % of control | [10] 106 % of control

O=C(O)CN(CCN(CC(=O)O)CC(=O)O)CC(=O)O
inactive: dose: 25.0 mg/kg/injection, schedule: Q01DX010 (ip), vehicle: saline 100 % of control | dose: 50.0 mg/kg/injection, schedule: Q01DX010 (ip), vehicle: saline 91 % of control | dose: 200.0 mg/kg/injection, schedule: Q01DX010 (ip), vehicle: saline 95 % of control

CC(C)(C)c1cc(CO)c(Sc2c(CO)cc(C(C)(C)C)cc2CO)c(CO)c1
inactive: dose: 400.0 mg/kg/injection, schedule: Q01DX001 (ip), vehicle: saline with Tween-80 90 % of control

CC1=CC(=O)NC1O (stereo unspecified)
inactive: dose: 2.5 mg/kg/injection, schedule: Q01DX010 (ip), vehicle: saline 87 % of control | dose: 10.0 mg/kg/injection, schedule: Q01DX010 (ip), vehicle: saline 91 % of control | dose: 15.0 mg/kg/injection, schedule: Q01DX010 (ip), vehicle: saline 100 % of control

C=C1C(=O)CCC1C(=O)O (stereo unspecified)
inactive: [13] 100 % of control and 109 % of control | dose: 178.0 mg/kg/injection, schedule: Q04DX003 (ip), vehicle: saline 106 % of control | dose: 266.0 mg/kg/injection, schedule: Q04DX003 (ip), vehicle: saline 108 % of control | [3] 123 % of control
active: dose: 400.0 mg/kg/injection, schedule: Q01DX009 (ip), vehicle: saline 150 % of control and 154 % of control and 162 % of control | dose: 600.0 mg/kg/injection, schedule: Q01DX009 (ip), vehicle: saline 170 % of control and 182 % of control | dose: 900.0 mg/kg/injection, schedule: Q01DX009 (ip), vehicle: saline 175 % of control

[Cl][Pt+2][Cl].[NH-]C1CCC1.[NH-]C1CCC1
inactive: [11] 94 % of control and 115 % of control
active: dose: 12.5 mg/kg/injection, schedule: Q01DX009 (ip), vehicle: Klucel (hydroxypropylcellulose) (HPC) 173 % of control and 201 % of control | dose: 25.0 mg/kg/injection, schedule: Q01DX009 (ip), vehicle: Klucel (hydroxypropylcellulose) (HPC) 195 % of control and 213 % of control
